Data set [1] deals with T1, α-glucosidase enzyme (EC3.2.1.20) (Saccharomyces cerevisiae, UniProt P53341).
T1 construct: purchased Sigma-Aldrich
The experiment in a line: biochemical. Conditions: for inhibition at 1 µg/mL / inhibition at 10 µg/mL / inhibition at 100 µg/mL / inhibition at 1000 µg/mL: read-out: % inhibition of α-glucosidase. From the text: The α-glucosidase enzyme is mainly expressed in the small intestine and catalyzes the breakdown of carbohydrates into glucose units by cleaving the glucosidic bonds. α-Glucosidase blockers are the first-line drugs for the treatment of non-insulin-dependent DM by suppressing carbohydrate hydrolysis and consequently retarding glucose absorption into the bloodstream and reducing postprandial hyperglycemia. α-Glucosidase is, thus, considered to be an attractive pharmaceutical target for the treatment of […] via control of the blood glucose levels. Accordingly, there is a continuous need to develop a potential class of α-glucosidase inhibitors. Toward this aim, we explored the potency of the synthesized compounds to inhibit the activity of α-glucosidase. We examined the inhibitory activity of the synthesized compounds following the reported assay by Peytam et al.. Thus, the compounds at different concentrations (1000, 100, 10, and 1 µg/mL) were incubated with α-glucosidase and subsequently […] was added and the absorbance was monitored at 405 nm. […] To further investigate the structural aspects of 1,3-thiohydantoin scaffold, a substitution at the N1-position with the methyl-proponate group was performed. […] Nevertheless, it has adverse gastrointestinal effects including diarrhea and flatulence. Thus, the discovery of a novel class of potent antidiabetic agents is urgently demanded.
An ELISA reader was used to assess the inhibition of α-glucosidase by 1,3,5-trisubstituted-2-thioxoimidazolidin-4-ones derivatives at various doses (1000, 100, 10, and 1 µg/mL) according to Peytam et al.. […] Then, the substrate (25 µL, 4 mM) was added to the mentioned mixture and allowed to incubate at 37 °C for 20 min. Finally, the change in absorbance at 405 nm was monitored using a Cytation 3 hybrid microplate reader (BioTek, Winooski, VT, USA). […] GraphPad prism 6.0 was used to calculate the IC50 values of the investigated compounds from the nonlinear regression curve (Systat Software, Inc. Tools for Science) (https://www.graphpad.com/scientific-software/prism/ (accessed on 1 September 2022)).

Data set [2] in a line: MTT cytotoxicity assay against WI-38 cells. It is filed as cell-based, human. As to conditions: human, WI-38 lung fibroblast cells; for viability at 48 h, 4 µg/mL: 4 µg/mL (log conc. 0.602); for viability at 48 h, 16 µg/mL: 16 µg/mL (log conc. 1.204); for viability at 48 h, 63 µg/mL: 63 µg/mL (log conc. 1.799); for viability at 48 h, 250 µg/mL: 250 µg/mL (log conc. 2.398); for viability at 48 h, 1000 µg/mL: 1000 µg/mL (log conc. 3); for IC50 at 48 h: MTT. Here is the method:
Based on the promising dual inhibitory activity of this class of compounds, we next evaluated the cytotoxicity of compounds 5a and 7a against human lung fibroblast cell line WI-38 in order to gain insights into the toxicity of this class of compounds utilizing the MTT assay. In this regard, lung fibroblast cells were cultured and treated with compounds 5a and 7a for 48 h at different concentrations (1000, 250, 63, 16, and 4 µg/mL). After the cells were washed, they were treated with MTT solution and the absorption was assessed using an ELISA reader at 570 nm. As a pharmacological reference drug, Celecoxib, a well-known anti-inflammatory agent, was utilized.
The cytotoxicity of compounds 5a and 7a was assessed toward the human lung fibroblast WI-38 cell line (Sigma-Aldrich, St. Louis, MO, USA, product number 90020107) using MTT assay. The MTT test assay was performed in accordance with the previously stated procedure. MTT (3-(4,5-dimethylthiazol-2-yl)-2,5-diphenyl tetrazolium bromide; Sigma catalog no. M2128) was dissolved in PBS at 5 mg/mL and processed to eliminate the insoluble residues. Briefly, cells (10^5 cells/well) were treated for 48 h at 37 °C with compounds 5a and 7a at varied doses (1000, 250, 63, 16, and 4 µg/mL, DMSO stock solutions) in a 5% CO2 atmosphere. In our assessment, celecoxib, an inhibitor of cyclooxygenase 2, was employed as a standard reference drug. Following cell washing, MTT solution (180 µL/well) was applied to the cells and incubated at 37 °C for 4 h with shaking, and the absorbance was measured using an ELISA reader at 570 nm.
(In general: Tetrazolium dyes change colour on reduction, which living cells bring about.)

Data set [3] can be described thus: DPPH free radical scavenging assay. Conditions: for DPPH free radical scavenging IC50: n = 4. From the text:
The antioxidant capability of compounds 5a and 7a was estimated utilizing the DPPH (2,2-diphenyl-1- picrylhydrazyl) scavenging assay to assess the free radical scavenger activity. DPPH is a stable free radical substrate with a purple color which upon reaction with an antioxidant compound, converts into 1,1-diphenyl-2-picryl hydrazine, a […] compound. The DPPH assay is widely applied for the investigation of superoxide radical scavenging activity. In this regard, compounds 5a and 7a were incubated at different concentrations (3.12, 6.25, 12.5, 25, 50, 100, and 200 µg/mL) with DPPH substrate and the absorption was assessed by ELISA at 510 nm. In our investigations, Trolox, a water-soluble analogue of vitamin E, was applied as a standard antioxidant reference drug. […] Further, Qamar et al. synthesized and evaluated the antioxidant activity of some novel N3-substituted-2-thiohydantoins.
According to Valko et al., the ELISA approach was used to analyze the free-radical DPPH scavenging activity of compounds (5a and 7a) at different concentrations (3.12, 6.25, 12.5, 25, 50, 100, and 200 µg/mL). The DPPH assay assesses the hydrogen-donating activity and thus provides an evaluation of the antioxidant activity via estimating the DPPH free-radical scavenging activity. The color intensity of the reaction mixture was measured after a purple-colored stable free radical (DPPH) was reduced into the yellow-colored diphenylpicryl hydrazinem. Briefly, 200 µL of different concentrations of compounds 5a and 7a were mixed with 50 µL of DPPH (0.659 mM) solution, and the mixture was incubated at 25 °C for 20 min. The absorbance of the reaction mixture was estimated after incubation at 510 nm. In our investigations, trolox was employed as standard reference drug. A control reaction was performed, and the inhibitory efficiency of DPPH radical-scavenging activity was determined using the equation below: % Inhibition = (A0 − A1)/A0 × 100 (1) where A0 is absorbance of […] and A1 is the absorbance of the compound.
(In general: Loss of DPPH colour is used to gauge radical scavenging.)

Results on 2 compounds are retold here after paper PMC9785777, “Antidiabetic Potential of Novel 1,3,5-Trisubstituted-2-Thioxoimidazloidin-4-One Analogues: Insights into α-Glucosidase, α-Amylase, and Antioxidant Activities” (Pharmaceuticals, 2022).

pIC50: −log10 of the molar value. ≈ marks a conversion by molar mass, not a printed value.

One may read the pIC50 as the negative decadic logarithm of the IC50, by convention in mol/L. In general, inhibition refers to how much of the control response was suppressed. The term viability denotes a read-out of living cells in per cent, often relative to untreated cells. High values mean better survival, low ones a greater loss of cells. For orientation: IC50 means the midpoint of a concentration-inhibition curve.

T1 sequence (P53341 whole entry): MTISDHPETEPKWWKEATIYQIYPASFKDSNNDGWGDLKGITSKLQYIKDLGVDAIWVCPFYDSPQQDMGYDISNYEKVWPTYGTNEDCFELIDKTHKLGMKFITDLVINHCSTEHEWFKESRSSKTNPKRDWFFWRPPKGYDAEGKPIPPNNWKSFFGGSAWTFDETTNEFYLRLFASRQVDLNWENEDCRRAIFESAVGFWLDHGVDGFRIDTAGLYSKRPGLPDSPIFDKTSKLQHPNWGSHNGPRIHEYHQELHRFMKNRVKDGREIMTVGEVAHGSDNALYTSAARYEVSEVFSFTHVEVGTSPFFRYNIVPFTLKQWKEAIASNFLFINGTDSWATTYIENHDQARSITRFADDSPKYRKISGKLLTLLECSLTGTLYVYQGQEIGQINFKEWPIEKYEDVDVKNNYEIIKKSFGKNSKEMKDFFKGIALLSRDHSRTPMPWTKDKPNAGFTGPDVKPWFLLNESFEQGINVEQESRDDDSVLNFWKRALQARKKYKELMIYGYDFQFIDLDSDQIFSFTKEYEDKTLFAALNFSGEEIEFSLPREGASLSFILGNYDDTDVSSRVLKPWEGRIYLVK

For `COC(=O)CCN1C(=S)N(N=C(C)c2ccccc2O)C(=O)C1=Cc1ccccc1O` [Compound 5a, Methyl [5-(2-hydroxybenzylidene)-4-oxo-3-(2-hydroxyphenylethylidene)amino-2-thioxoimidazolidin-1-yl] propionate], in data set [1], the pIC50 is 4.94, the inhibition at 1 µg/mL came to 35%, the inhibition at 10 µg/mL is 58% and the inhibition at 100 µg/mL came out at 75%. For the same compound, the inhibition at 1000 µg/mL in data set [1] was 86%. Further, in data set [2], the viability at 48 h, 4 µg/mL worked out at 69%; the viability at 48 h, 16 µg/mL was found to be 59.8%; the viability at 48 h, 63 µg/mL came to 52.9%; the viability at 48 h, 250 µg/mL is 44.1%. In data set [2], this compound came in with a viability at 48 h, 1000 µg/mL of 34.6% and an IC50 at 48 h of 88.5 µg/mL (≈ 201 µM). Further, the “%RSA (DPPH radical scavenging activity)” value in data set [3] (3.12 µg/mL) is given as 12.8385%. In addition, the “%RSA (DPPH radical scavenging activity)” value in data set [3] (6.25 µg/mL) is reported as 25.9268%. The “%RSA (DPPH radical scavenging activity)” value in data set [3] (12.5 µg/mL) is 34.2%. The “%RSA (DPPH radical scavenging activity)” value in data set [3] (25 µg/mL) is listed as 49.2589%. Moreover, the “%RSA (DPPH radical scavenging activity)” value in data set [3] (50 µg/mL) was found to be 65.3256%. For the same compound, the “%RSA (DPPH radical scavenging activity)” value in data set [3] (100 µg/mL) came out at 84.0278%. Besides, in data set [3] (200 µg/mL), the “%RSA (DPPH radical scavenging activity)” value was determined as 90.9673%. Further, in data set [3], the “DPPH free radical scavenging IC50” value amounted to 51.75 µg/mL.
`COC(=O)CCN1C(=S)N(N=C(C)c2ccccc2O)C(=O)C1=Cc1ccccc1OC(C)=O` [Compound 7a, Methyl [5-(2-acetoxybenzylidene)-4-oxo-3-(2-hydroxyphenylethylidene)amino-2-thioxoimidazolidin-1-yl] propionate]: in data set [1], the pIC50 is 4.42, the inhibition at 1 µg/mL is 21.8%, the inhibition at 10 µg/mL worked out at 48.3% and the inhibition at 100 µg/mL amounted to 66.1%. Moreover, the inhibition at 1000 µg/mL in data set [1] amounted to 82.6%. In data set [2], this compound displayed a viability at 48 h, 4 µg/mL of 73%; a viability at 48 h, 16 µg/mL of 60.6%; a viability at 48 h, 63 µg/mL of 53.4%; a viability at 48 h, 250 µg/mL of 44.1%. In data set [2], this compound registered a viability at 48 h, 1000 µg/mL of 36.6% and a half-maximal inhibitory concentration (IC50) at 48 h of 109 µg/mL (≈ 227 µM). In addition, the “%RSA (DPPH radical scavenging activity)” value in data set [3] (3.12 µg/mL) is 9.7382%. Further, the “%RSA (DPPH radical scavenging activity)” value in data set [3] (6.25 µg/mL) turned out to be 18.9636%. The “%RSA (DPPH radical scavenging activity)” value in data set [3] (12.5 µg/mL) turned out to be 30.2839%. For the same compound, in data set [3] (25 µg/mL), the “%RSA (DPPH radical scavenging activity)” value amounted to 45.4635%. In addition, in data set [3] (50 µg/mL), the “%RSA (DPPH radical scavenging activity)” value came out at 62.2992%. Further, the “%RSA (DPPH radical scavenging activity)” value in data set [3] (100 µg/mL) came out at 81.6087%. In addition, the “%RSA (DPPH radical scavenging activity)” value in data set [3] (200 µg/mL) was 80.732%. For the same compound, in data set [3], the “DPPH free radical scavenging IC50” value is listed as 65.5 µg/mL.
